Columns and labels:
PCT [1] = test: Second library screening for PCT detection, clone supernatants, retest with CTZ-h (Example 4); format: biochemical, human; conditions: for Signal-to-noise ratio: PCT+/PCT-, MBP-PCT 3.3 ng/ml, CTZ-h; for PCT+: luminescence signal value with MBP-PCT 3.3 ng/ml; for PCT+ / PCT-: large subunit-rSCFV5 12.5 nM, CTZ-h 25 µM, 60 s; for PCT-: luminescence signal value, PBSAD control without PCT
Description: In order to further improve the signal-to-noise ratio and complementary activity of the luciferase dual-antibody complementary activation assay, novel complementary luciferase small subunits were prepared in this example. Large subunit-rSCFV5 fusion protein (SEQ ID NO: 87) was kept unchanged, and the small subunit sequence of the rSCFV18-RB073 fusion protein (SEQ ID NO: 89) were modified by semi-randomization. The theoretical diversity was 6912, the library capacity was 10^6, and 3,000 single clones were picked. The method of protein induction and expression was the same as that in Example 2.
Detection Methods: • (1) The concentration of large subunit-rSCFV5 fusion protein was diluted to 12.5 nM, and 15 µl was added per well; • (2) MBP-PCT fusion protein was diluted to 3.3 ng/ml with PBSAD, and 10 µl was added per well; • (3) HB2151 strain containing plasmids with different small subunit sequences were induced by IPTG at 30°C overnight, then treated with polymyxin B for 1.5h, and centrifuged to collect the supernatant, and 2.5µl supernatant was added per well; • (4) The above three components were slightly mixed, incubated at 37°C for 7 min, and Obuffer 6.37-3 containing Furimazine at a concentration of 25 µM was added, and after 3 min, the luminescence signal value was detected using a bioluminescence detector; and • (5) Clones with RLU higher than 10,000 were picked. The substrate was replaced with CTZ-h substrate for retesting (Obuffer 6.37-3 containing CTZ-h at a concentration of 25 µM was added, and after 60 s, the luminescence signal value was detected using a bioluminescence detector), and a PBSAD control was added to test the signal-to-noise ratio.

PCT [2] = test: Sensitivity and linear range for PCT detection of preferred small subunits (Example 5); format: biochemical, human; conditions: for luminescence value: normalized; for Signal-to-noise ratio at 1000 pg/ml: large subunit 8.3~25 nM, small subunit fusion 30~180 nM, CTZ-h 15 µM
Description: Detection Methods: • (1) The concentration of large subunit-rSCFV5 fusion protein was diluted with PBSA to 8.3~25nM, and 15µl was added per well; • (2) MBP-PCT fusion proteins were diluted with PBSAD in a downward gradient starting from 2.5 µg/ml, and 10 µl was added per well; • (3) The rSCFV18-small subunit mutant-containing fusion protein was diluted with PBSA to 30~180 nM, and 15 µl was added per well; • (4) The above three components were slightly mixed, incubated at 37°C for 15 min, and Obuffer 6.37-3 containing CTZ-h at a concentration of 15 µM was added, and the luminescence signal value was immediately detected using a bioluminescence detector (the luminescence value was normalized);

Row | Sequence | Signal-to-noise ratio (PCT [1]) | PCT+ (PCT [1]) | PCT- (PCT [1]) | further results
1 | VDGWRLFDKKS [RC-103] | 6.5 | 8672 | 1337 | –
2 | VDGWRLFDKKS [RC-175] | 11.8 | 6953 | 587 | –
3 | VDGWRLFDKKS [RC-224] | 9.2 | 10561 | 1142 | luminescence value (PCT [2]; PCT 0.0, background): 5000; luminescence value (PCT [2]; PCT 1 (pg/ml)): 5021; luminescence value (PCT [2]; PCT 3 (pg/ml)): 5002; luminescence value (PCT [2]; PCT 10 (pg/ml)): 5260; luminescence value (PCT [2]; PCT 30 (pg/ml)): 5685; luminescence value (PCT [2]; PCT 100 (pg/ml)): 7341; luminescence value (PCT [2]; PCT 1000 (pg/ml)): 28543; luminescence value (PCT [2]; PCT 10000 (pg/ml)): 240337; luminescence value (PCT [2]; PCT 100000 (pg/ml)): 1453897; luminescence value (PCT [2]; PCT 250000 (pg/ml)): 1856339; Signal-to-noise ratio at 1000 pg/ml (PCT [2]): 5.7
4 | VDGWRLFERKS [RC-171] | 7.6 | 10309 | 1363 | –
5 | VDGYRLFEKVS [RC-263] | 7.0 | 4768 | 685 | luminescence value (PCT [2]; PCT 0.0, background): 5000; luminescence value (PCT [2]; PCT 1 (pg/ml)): 5132; luminescence value (PCT [2]; PCT 3 (pg/ml)): 5234; luminescence value (PCT [2]; PCT 10 (pg/ml)): 5192; luminescence value (PCT [2]; PCT 30 (pg/ml)): 5647; luminescence value (PCT [2]; PCT 100 (pg/ml)): 7134; luminescence value (PCT [2]; PCT 1000 (pg/ml)): 28776; luminescence value (PCT [2]; PCT 10000 (pg/ml)): 240937; luminescence value (PCT [2]; PCT 100000 (pg/ml)): 1556694; luminescence value (PCT [2]; PCT 250000 (pg/ml)): 2230650; Signal-to-noise ratio at 1000 pg/ml (PCT [2]): 5.8
6 | VDGYRLFERKS [RC-203] | 6.6 | 10062 | 1536 | –
7 | VEGWRIFERKW [RC-070] | 5.2 | 8980 | 1715 | –
8 | VEGWRLFDRKS [RC-232] | 5.8 | 18313 | 3183 | –
9 | VEGWRLFDRVS [RC-237] | 5.0 | 10821 | 2186 | –
10 | VEGYRIFEKKW [RC-286] | 11.4 | 5003 | 438 | luminescence value (PCT [2]; PCT 0.0, background): 5000; luminescence value (PCT [2]; PCT 1 (pg/ml)): 4670; luminescence value (PCT [2]; PCT 3 (pg/ml)): 4645; luminescence value (PCT [2]; PCT 10 (pg/ml)): 4833; luminescence value (PCT [2]; PCT 30 (pg/ml)): 5406; luminescence value (PCT [2]; PCT 100 (pg/ml)): 6696; luminescence value (PCT [2]; PCT 1000 (pg/ml)): 27596; luminescence value (PCT [2]; PCT 10000 (pg/ml)): 236023; luminescence value (PCT [2]; PCT 100000 (pg/ml)): 1443932; luminescence value (PCT [2]; PCT 250000 (pg/ml)): 2007480; Signal-to-noise ratio at 1000 pg/ml (PCT [2]): 5.5
11 | VEGYRLFDKVS [RC-087] | 8.0 | 6923 | 861 | –
12 | VEGYRLFDKVS [RC-215] | 11.2 | 5972 | 531 | luminescence value (PCT [2]; PCT 0.0, background): 5000; luminescence value (PCT [2]; PCT 1 (pg/ml)): 5095; luminescence value (PCT [2]; PCT 3 (pg/ml)): 5206; luminescence value (PCT [2]; PCT 10 (pg/ml)): 5458; luminescence value (PCT [2]; PCT 30 (pg/ml)): 6156; luminescence value (PCT [2]; PCT 100 (pg/ml)): 7892; luminescence value (PCT [2]; PCT 1000 (pg/ml)): 35231; luminescence value (PCT [2]; PCT 10000 (pg/ml)): 296125; luminescence value (PCT [2]; PCT 100000 (pg/ml)): 1967363; luminescence value (PCT [2]; PCT 250000 (pg/ml)): 2983773; Signal-to-noise ratio at 1000 pg/ml (PCT [2]): 7.0
13 | VEGYRLFDKVS [RC-247] | 8.8 | 4398 | 497 | –
14 | VEGYRLFDRKS [RC-218] | 7.9 | 7242 | 921 | luminescence value (PCT [2]; PCT 0.0, background): 5000; luminescence value (PCT [2]; PCT 1 (pg/ml)): 4937; luminescence value (PCT [2]; PCT 3 (pg/ml)): 4976; luminescence value (PCT [2]; PCT 10 (pg/ml)): 5164; luminescence value (PCT [2]; PCT 30 (pg/ml)): 5701; luminescence value (PCT [2]; PCT 100 (pg/ml)): 7494; luminescence value (PCT [2]; PCT 1000 (pg/ml)): 31585; luminescence value (PCT [2]; PCT 10000 (pg/ml)): 266213; luminescence value (PCT [2]; PCT 100000 (pg/ml)): 1757745; luminescence value (PCT [2]; PCT 250000 (pg/ml)): 2436323; Signal-to-noise ratio at 1000 pg/ml (PCT [2]): 6.3
15 | VEGYRLFEKIS [RC-036] | 5.5 | 8563 | 1565 | –
16 | VEGYRLFEKIS [RC-082] | 5.8 | 12852 | 2232 | –
17 | VEGYRLFEKIS [RC-239] | 6.0 | 10022 | 1676 | –
18 | VEGYRLFEKVS [RC-042] | 9.7 | 5769 | 593 | –
19 | VEGYRLFERKS [RC-105] | 5.0 | 14534 | 2934 | –
20 | VEGYRLFERKS [RC-145] | 10.1 | 8198 | 808 | –
21 | VNGWRIFDKKS [RC-242] | 5.9 | 9037 | 1524 | –

Row | Sequence | Signal-to-noise ratio (PCT [1]) | PCT+ (PCT [1]) | PCT- (PCT [1]) | further results
22 | VNGWRLFDKKS [RC-271] | 5.0 | 7132 | 1428 | –
23 | VSGWRIFDKKS [RC-124] | 7.5 | 9280 | 1234 | –
24 | VSGWRIFDRKS [RC-041] | 4.7 | 11789 | 2495 | –
25 | VSGYRIFDKKS [RC-044] | 8.0 | 10392 | 1302 | –
26 | VSGYRIFEKKS [RC-129] | 5.8 | 12040 | 2068 | –
27 | VSGYRIFEKKS [RC-152] | 5.6 | 9688 | 1715 | –
28 | VSGYRIFEKKW [RC-113] | 5.3 | 6207 | 1176 | –
29 | VSGYRIFERKW [RC-206] | 5.9 | 7413 | 1260 | –
30 | VSGYRLFDKKS [RC-134] | 7.7 | 9409 | 1223 | –
31 | VSGYRLFDKKS [RC-187] | 7.9 | 11049 | 1405 | luminescence value (PCT [2]; PCT 0.0, background): 5000; luminescence value (PCT [2]; PCT 1 (pg/ml)): 4944; luminescence value (PCT [2]; PCT 3 (pg/ml)): 4968; luminescence value (PCT [2]; PCT 10 (pg/ml)): 5099; luminescence value (PCT [2]; PCT 30 (pg/ml)): 5570; luminescence value (PCT [2]; PCT 100 (pg/ml)): 7032; luminescence value (PCT [2]; PCT 1000 (pg/ml)): 27642; luminescence value (PCT [2]; PCT 10000 (pg/ml)): 214329; luminescence value (PCT [2]; PCT 100000 (pg/ml)): 910908; luminescence value (PCT [2]; PCT 250000 (pg/ml)): 1012760; Signal-to-noise ratio at 1000 pg/ml (PCT [2]): 5.5
32 | VSGYRLFDKKW [RC-099] | 7.0 | 8149 | 1164 | luminescence value (PCT [2]; PCT 0.0, background): 5000; luminescence value (PCT [2]; PCT 1 (pg/ml)): 5106; luminescence value (PCT [2]; PCT 3 (pg/ml)): 5166; luminescence value (PCT [2]; PCT 10 (pg/ml)): 5453; luminescence value (PCT [2]; PCT 30 (pg/ml)): 5950; luminescence value (PCT [2]; PCT 100 (pg/ml)): 7470; luminescence value (PCT [2]; PCT 1000 (pg/ml)): 28688; luminescence value (PCT [2]; PCT 10000 (pg/ml)): 243815; luminescence value (PCT [2]; PCT 100000 (pg/ml)): 1744023; luminescence value (PCT [2]; PCT 250000 (pg/ml)): 2942238; Signal-to-noise ratio at 1000 pg/ml (PCT [2]): 5.7
33 | VSGYRLFDKKW [RC-261] | 4.5 | 7217 | 1616 | –
34 | VSGYRLFDKVS [RC-114] | 6.5 | 6401 | 982 | –
35 | VSGYRLFDKVS [RC-208] | 6.0 | 12303 | 2056 | –
36 | VSGYRLFDRKS [RC-018] | 6.6 | 13188 | 1998 | –
37 | VSGYRLFDRKS [RC-098] | 5.1 | 8666 | 1698 | –
38 | VSGYRLFDRKS [RC-228] | 5.4 | 16339 | 3000 | –
39 | VSGYRLFDRKW [RC-033] | 10.4 | 8509 | 820 | –
40 | VSGYRLFDRVS [RC-032] | 4.8 | 9519 | 1998 | –
41 | VSGYRLFDRVW [RC-220] | 5.7 | 6738 | 1192 | –

Reference: patent EP4700040A1, “PEPTIDE AND LUMINESCENT COMPLEX CONTAINING SAME” (Shenzhen Loggene Life Science & Technology Co., Ltd., priority 2023, dated 2024)
